How the values were obtained:
[1] = system: Tyrosine-protein kinase ABL1 (Homo sapiens), P00519 [H396P]; settings: Compound concentration 1000.0 nM
[2] = system: Tyrosine-protein kinase ABL1 (Homo sapiens), P00519 [M351T]; settings: Compound concentration 1000.0 nM
[3] = target: Activin receptor type-1-like (Homo sapiens) (UniProt P37023); settings: Compound concentration 1000.0 nM
[4] = target: ALK tyrosine kinase receptor (Homo sapiens) (UniProt Q9UM73); settings: Compound concentration 1000.0 nM
[5] = target: NUAK family SNF1-like kinase 1 (Homo sapiens) (UniProt O60285); settings: Compound concentration 1000.0 nM
[6] = target: Aurora kinase A (Homo sapiens) (UniProt O14965); settings: Compound concentration 1000.0 nM
[7] = target: Serine/threonine-protein kinase BRSK2 (Homo sapiens) (UniProt Q8IWQ3); settings: Compound concentration 1000.0 nM
[8] = target: Tyrosine-protein kinase BTK (Homo sapiens) (UniProt Q06187); settings: Compound concentration 1000.0 nM
[9] = target: Calcium/calmodulin-dependent protein kinase type 1 (Homo sapiens) (UniProt Q14012); settings: Compound concentration 1000.0 nM
[10] = target: Macrophage colony-stimulating factor 1 receptor (Homo sapiens) (UniProt P07333); settings: Compound concentration 1000.0 nM
[11] = target: Casein kinase I isoform gamma-1 (Homo sapiens) (UniProt Q9HCP0); settings: Compound concentration 1000.0 nM
[12] = system: Epidermal growth factor receptor (Homo sapiens), P00533 [UNDEFINED MUTATION]; settings: Compound concentration 1000.0 nM
[13] = system: Epidermal growth factor receptor (Homo sapiens), P00533 [L858R]; settings: Compound concentration 1000.0 nM
[14] = target: Ephrin type-A receptor 7 (Homo sapiens) (UniProt Q15375); settings: Compound concentration 1000.0 nM
[15] = target: Receptor tyrosine-protein kinase erbB-4 (Homo sapiens) (UniProt Q15303); settings: Compound concentration 1000.0 nM
[16] = target: Mitogen-activated protein kinase 15 (Homo sapiens) (UniProt Q8TD08); settings: Compound concentration 1000.0 nM
[17] = target: Focal adhesion kinase 1 (Homo sapiens) (UniProt Q05397); settings: Compound concentration 1000.0 nM
[18] = system: Fibroblast growth factor receptor 3 (Homo sapiens), P22607 [G697C]; settings: Compound concentration 1000.0 nM
[19] = system: Receptor-type tyrosine-protein kinase FLT3 (Homo sapiens), P36888 [D835H]; settings: Compound concentration 1000.0 nM
[20] = target: G protein-coupled receptor kinase 3 (Homo sapiens) (UniProt P35626); settings: Compound concentration 1000.0 nM
[21] = system: Mast/stem cell growth factor receptor Kit (Homo sapiens), P10721 [A829P]; settings: Compound concentration 1000.0 nM
[22] = system: Mast/stem cell growth factor receptor Kit (Homo sapiens), P10721 [L576P]; settings: Compound concentration 1000.0 nM
[23] = target: LIM domain kinase 1 (Homo sapiens) (UniProt P53667); settings: Compound concentration 1000.0 nM
[24] = target: Mitogen-activated protein kinase kinase kinase 3 (Homo sapiens) (UniProt Q99759); settings: Compound concentration 1000.0 nM
[25] = target: Serine/threonine-protein kinase MARK1 (Homo sapiens) (UniProt Q9P0L2); settings: Compound concentration 1000.0 nM
[26] = target: Serine/threonine-protein kinase MARK2 (Homo sapiens) (UniProt Q7KZI7); settings: Compound concentration 1000.0 nM
[27] = target: Tyrosine-protein kinase Mer (Homo sapiens) (UniProt Q12866); settings: Compound concentration 1000.0 nM
[28] = target: Hepatocyte growth factor receptor (Homo sapiens) (UniProt P08581); settings: Compound concentration 1000.0 nM
[29] = target: Myosin light chain kinase (Homo sapiens) (UniProt Q32MK0); settings: Compound concentration 1000.0 nM
[30] = target: Myosin light chain kinase family member 4 (Homo sapiens) (UniProt Q86YV6); settings: Compound concentration 1000.0 nM
[31] = target: Serine/threonine-protein kinase NIM1 (Homo sapiens) (UniProt Q8IY84); settings: Compound concentration 1000.0 nM
[32] = target: Phosphorylase b kinase regulatory subunit alpha, liver isoform (Homo sapiens) (UniProt P46019); settings: Compound concentration 1000.0 nM
[33] = system: Phosphatidylinositol 4,5-bisphosphate 3-kinase catalytic subunit alpha isoform (Homo sapiens), P42336 [E542K]; settings: Compound concentration 1000.0 nM
[34] = target: Protein-tyrosine kinase 2-beta (Homo sapiens) (UniProt Q14289); settings: Compound concentration 1000.0 nM
[35] = target: Receptor-interacting serine/threonine-protein kinase 2 (Homo sapiens) (UniProt O43353); settings: Compound concentration 1000.0 nM
[36] = target: Rho-associated protein kinase 1 (Homo sapiens) (UniProt Q13464); settings: Compound concentration 1000.0 nM
[37] = target: Ribosomal protein S6 kinase alpha-6 (Homo sapiens) (UniProt Q9UK32); settings: Compound concentration 1000.0 nM
[38] = target: STE20-like serine/threonine-protein kinase (Homo sapiens) (UniProt Q9H2G2); settings: Compound concentration 1000.0 nM
[39] = target: STE20/SPS1-related proline-alanine-rich protein kinase (Homo sapiens) (UniProt Q9UEW8); settings: Compound concentration 1000.0 nM
[40] = target: TGF-beta receptor type-1 (Homo sapiens) (UniProt P36897); settings: Compound concentration 1000.0 nM
[41] = target: Serine/threonine-protein kinase tousled-like 2 (Homo sapiens) (UniProt Q86UE8); settings: Compound concentration 1000.0 nM
[42] = target: High affinity nerve growth factor receptor (Homo sapiens) (UniProt P04629); settings: Compound concentration 1000.0 nM
[43] = target: BDNF/NT-3 growth factors receptor (Homo sapiens) (UniProt Q16620); settings: Compound concentration 1000.0 nM
[44] = target: D(4) dopamine receptor (Homo sapiens) (UniProt P21917); settings: Compound concentration 10.0 uM
[45] = target: Alpha-1A adrenergic receptor (Homo sapiens) (UniProt P35348); settings: Compound concentration 10.0 uM
Chain of Alpha-1A adrenergic receptor (Homo sapiens) (P35348 whole entry): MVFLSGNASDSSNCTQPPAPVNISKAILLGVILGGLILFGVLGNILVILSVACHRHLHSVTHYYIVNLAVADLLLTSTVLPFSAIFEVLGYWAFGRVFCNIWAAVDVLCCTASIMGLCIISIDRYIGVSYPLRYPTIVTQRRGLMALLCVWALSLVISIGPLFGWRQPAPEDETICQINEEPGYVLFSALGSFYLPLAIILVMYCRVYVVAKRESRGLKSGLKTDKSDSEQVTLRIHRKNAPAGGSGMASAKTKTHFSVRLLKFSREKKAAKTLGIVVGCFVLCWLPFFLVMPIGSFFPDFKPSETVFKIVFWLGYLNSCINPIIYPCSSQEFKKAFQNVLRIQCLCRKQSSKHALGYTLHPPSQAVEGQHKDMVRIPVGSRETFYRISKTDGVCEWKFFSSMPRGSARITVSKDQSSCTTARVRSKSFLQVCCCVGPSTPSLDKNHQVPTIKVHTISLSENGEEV

Chain of Protein-tyrosine kinase 2-beta (Homo sapiens) (Q14289 whole entry, looked up): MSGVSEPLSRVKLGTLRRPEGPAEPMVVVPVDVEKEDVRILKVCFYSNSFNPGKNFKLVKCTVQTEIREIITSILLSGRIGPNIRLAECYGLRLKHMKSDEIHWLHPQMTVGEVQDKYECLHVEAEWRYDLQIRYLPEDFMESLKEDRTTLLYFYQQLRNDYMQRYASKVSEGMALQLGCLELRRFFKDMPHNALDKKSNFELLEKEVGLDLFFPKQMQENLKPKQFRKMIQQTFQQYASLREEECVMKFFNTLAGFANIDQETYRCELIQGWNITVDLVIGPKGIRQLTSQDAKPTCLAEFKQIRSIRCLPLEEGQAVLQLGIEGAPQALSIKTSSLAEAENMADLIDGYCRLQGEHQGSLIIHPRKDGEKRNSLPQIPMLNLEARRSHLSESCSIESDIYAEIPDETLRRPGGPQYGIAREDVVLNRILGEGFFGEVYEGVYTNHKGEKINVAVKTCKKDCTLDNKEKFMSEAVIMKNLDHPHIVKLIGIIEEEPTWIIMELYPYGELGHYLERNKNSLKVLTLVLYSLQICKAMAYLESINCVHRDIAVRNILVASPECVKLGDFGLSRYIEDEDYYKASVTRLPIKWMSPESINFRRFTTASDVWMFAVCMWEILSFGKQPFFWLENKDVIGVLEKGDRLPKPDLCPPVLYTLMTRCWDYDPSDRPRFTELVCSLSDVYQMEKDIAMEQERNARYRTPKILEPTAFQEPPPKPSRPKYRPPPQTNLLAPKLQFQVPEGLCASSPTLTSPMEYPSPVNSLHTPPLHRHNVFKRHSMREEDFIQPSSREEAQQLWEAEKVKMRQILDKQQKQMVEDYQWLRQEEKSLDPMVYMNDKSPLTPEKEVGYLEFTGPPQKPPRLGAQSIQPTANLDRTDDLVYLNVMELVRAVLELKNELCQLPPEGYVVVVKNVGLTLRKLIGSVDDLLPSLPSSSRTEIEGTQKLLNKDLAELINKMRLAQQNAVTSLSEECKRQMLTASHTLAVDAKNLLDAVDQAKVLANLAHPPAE
Chain of Receptor tyrosine-protein kinase erbB-4 (Homo sapiens) (Q15303 whole entry): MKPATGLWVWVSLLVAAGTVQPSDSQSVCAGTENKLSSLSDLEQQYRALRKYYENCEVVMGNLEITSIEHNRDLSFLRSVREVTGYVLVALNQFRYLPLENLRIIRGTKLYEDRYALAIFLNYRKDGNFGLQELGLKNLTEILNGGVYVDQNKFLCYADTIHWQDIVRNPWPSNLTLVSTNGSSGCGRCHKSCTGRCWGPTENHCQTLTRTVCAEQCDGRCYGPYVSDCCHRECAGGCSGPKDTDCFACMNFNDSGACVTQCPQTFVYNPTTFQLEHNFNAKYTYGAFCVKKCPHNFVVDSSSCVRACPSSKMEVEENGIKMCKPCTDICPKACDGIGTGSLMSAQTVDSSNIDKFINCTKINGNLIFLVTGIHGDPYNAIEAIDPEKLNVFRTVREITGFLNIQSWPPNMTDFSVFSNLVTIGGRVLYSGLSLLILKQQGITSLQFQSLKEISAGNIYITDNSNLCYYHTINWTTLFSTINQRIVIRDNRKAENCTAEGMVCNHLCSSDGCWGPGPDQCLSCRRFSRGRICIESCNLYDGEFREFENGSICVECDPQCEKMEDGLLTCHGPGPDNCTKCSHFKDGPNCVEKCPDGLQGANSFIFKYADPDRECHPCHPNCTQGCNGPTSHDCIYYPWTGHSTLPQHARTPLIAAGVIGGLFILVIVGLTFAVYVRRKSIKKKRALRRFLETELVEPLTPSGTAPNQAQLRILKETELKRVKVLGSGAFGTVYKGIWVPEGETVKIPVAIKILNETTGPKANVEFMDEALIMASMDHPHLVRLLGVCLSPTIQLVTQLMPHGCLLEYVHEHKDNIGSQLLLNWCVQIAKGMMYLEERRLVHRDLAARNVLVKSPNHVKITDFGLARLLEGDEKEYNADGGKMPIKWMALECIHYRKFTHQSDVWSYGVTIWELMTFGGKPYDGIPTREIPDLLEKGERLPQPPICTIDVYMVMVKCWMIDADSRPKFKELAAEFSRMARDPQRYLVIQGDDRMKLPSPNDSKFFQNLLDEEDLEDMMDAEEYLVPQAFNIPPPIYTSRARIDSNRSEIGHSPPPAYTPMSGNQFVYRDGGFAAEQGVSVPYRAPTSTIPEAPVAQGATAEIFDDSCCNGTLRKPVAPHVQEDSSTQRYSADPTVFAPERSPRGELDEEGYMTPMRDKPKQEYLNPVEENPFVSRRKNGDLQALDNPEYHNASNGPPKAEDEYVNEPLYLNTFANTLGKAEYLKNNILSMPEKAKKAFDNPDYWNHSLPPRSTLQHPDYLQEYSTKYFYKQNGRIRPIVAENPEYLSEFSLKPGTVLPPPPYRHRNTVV
Chain of Receptor-interacting serine/threonine-protein kinase 2 (Homo sapiens) (O43353 whole entry): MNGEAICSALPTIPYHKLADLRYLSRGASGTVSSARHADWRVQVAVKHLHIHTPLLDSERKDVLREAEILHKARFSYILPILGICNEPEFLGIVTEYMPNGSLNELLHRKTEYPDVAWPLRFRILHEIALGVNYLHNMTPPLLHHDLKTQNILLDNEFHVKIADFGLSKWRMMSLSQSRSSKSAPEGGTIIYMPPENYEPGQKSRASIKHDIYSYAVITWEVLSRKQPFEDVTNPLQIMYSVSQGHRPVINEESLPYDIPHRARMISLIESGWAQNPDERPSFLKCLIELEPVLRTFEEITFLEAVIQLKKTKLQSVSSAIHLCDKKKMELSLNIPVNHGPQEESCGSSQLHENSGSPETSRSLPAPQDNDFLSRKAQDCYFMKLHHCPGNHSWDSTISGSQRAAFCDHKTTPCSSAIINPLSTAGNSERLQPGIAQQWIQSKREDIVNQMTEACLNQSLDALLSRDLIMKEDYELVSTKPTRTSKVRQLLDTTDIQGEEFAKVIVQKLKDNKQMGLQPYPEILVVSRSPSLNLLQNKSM
Chain of D(4) dopamine receptor (Homo sapiens) (P21917 whole entry): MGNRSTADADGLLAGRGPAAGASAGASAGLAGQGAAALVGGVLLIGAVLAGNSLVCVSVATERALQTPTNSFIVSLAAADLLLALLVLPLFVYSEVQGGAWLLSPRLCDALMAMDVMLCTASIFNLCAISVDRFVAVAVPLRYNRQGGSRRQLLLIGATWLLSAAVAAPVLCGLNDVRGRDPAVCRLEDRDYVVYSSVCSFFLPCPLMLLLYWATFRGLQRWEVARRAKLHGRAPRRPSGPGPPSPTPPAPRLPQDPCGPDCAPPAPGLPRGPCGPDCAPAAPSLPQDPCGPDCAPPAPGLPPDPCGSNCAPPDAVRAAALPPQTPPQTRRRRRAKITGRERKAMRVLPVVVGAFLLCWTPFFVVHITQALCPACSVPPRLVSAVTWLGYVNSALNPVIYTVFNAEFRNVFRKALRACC
Chain of Mast/stem cell growth factor receptor Kit (Homo sapiens), P10721 [A829P] (P10721 whole entry A829P): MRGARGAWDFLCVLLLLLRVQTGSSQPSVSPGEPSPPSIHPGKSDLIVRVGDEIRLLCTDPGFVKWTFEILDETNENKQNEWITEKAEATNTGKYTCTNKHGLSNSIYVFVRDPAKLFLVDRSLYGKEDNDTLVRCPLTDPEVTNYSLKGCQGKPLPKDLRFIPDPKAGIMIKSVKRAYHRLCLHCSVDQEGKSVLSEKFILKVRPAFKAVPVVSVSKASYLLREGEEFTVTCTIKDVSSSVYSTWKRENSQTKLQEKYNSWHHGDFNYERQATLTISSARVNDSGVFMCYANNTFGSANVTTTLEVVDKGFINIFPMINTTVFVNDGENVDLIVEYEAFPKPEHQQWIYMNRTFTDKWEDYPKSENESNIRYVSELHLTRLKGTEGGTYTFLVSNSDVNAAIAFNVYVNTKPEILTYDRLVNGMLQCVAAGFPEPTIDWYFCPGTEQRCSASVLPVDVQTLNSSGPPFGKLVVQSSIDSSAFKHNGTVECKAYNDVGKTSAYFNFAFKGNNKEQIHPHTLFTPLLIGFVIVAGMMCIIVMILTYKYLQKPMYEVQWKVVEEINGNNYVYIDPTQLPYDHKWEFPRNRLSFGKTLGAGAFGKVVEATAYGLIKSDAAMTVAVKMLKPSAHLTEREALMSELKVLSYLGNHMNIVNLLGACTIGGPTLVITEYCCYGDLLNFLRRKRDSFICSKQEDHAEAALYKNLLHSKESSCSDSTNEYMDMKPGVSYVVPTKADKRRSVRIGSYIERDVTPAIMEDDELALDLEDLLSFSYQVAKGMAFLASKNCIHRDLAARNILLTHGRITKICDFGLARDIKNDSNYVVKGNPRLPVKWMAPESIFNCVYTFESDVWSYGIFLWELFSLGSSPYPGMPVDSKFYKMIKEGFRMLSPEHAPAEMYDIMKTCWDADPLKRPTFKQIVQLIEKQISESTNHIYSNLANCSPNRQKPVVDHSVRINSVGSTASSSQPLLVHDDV
Chain of Mast/stem cell growth factor receptor Kit (Homo sapiens), P10721 [L576P] (P10721 whole entry L576P, the tested form may be a part): as the sequence (P10721 whole entry A829P) above, with L576P, P829A counted along it

CC(=O)c1c(NS(C)(=O)=O)c2cc(-c3ccc(Cl)cc3)c(-c3ccc(Cl)cc3Cl)nc2n(C)c1=O [MRL-CB1-NC]
inactive: residual activity [1] 100% | residual activity [2] 87% | residual activity [3] 100% | residual activity [4] 95% | residual activity [5] 86% | residual activity [6] 87% | residual activity [7] 90% | residual activity [8] 84% | residual activity [9] 100% | residual activity [10] 100% | residual activity [11] 92% | residual activity [12] 91% | residual activity [13] 98% | residual activity [14] 100% | residual activity [15] 100% | residual activity [16] 100% | residual activity [17] 100% | residual activity [18] 100% | residual activity [19] 96% | residual activity [20] 100% | residual activity [21] 96% | residual activity [22] 99% | residual activity [23] 88% | residual activity [24] 100% | residual activity [25] 100% | residual activity [26] 100% | residual activity [27] 100% | residual activity [28] 100% | residual activity [29] 91% | residual activity [30] 100% | residual activity [31] 81% | residual activity [32] 100% | residual activity [33] 76% | residual activity [34] 100% | residual activity [35] 96% | residual activity [36] 85% | residual activity [37] 90% | residual activity [38] 100% | residual activity [39] 92% | residual activity [40] 100% | residual activity [41] 99% | residual activity [42] 64% | residual activity [43] 94% | inhibition [44] 17.1% | inhibition [45] 28.5%

CC(=O)Nc1c(C(C)=O)c(=O)n(C)c2nc(-c3ccc(Cl)cc3Cl)c(-c3ccc(Cl)cc3)cc12 [NAPHTHYRIDINONE]
inactive: residual activity [1] 100% | residual activity [2] 100% | residual activity [3] 100% | residual activity [4] 100% | residual activity [5] 100% | residual activity [6] 100% | residual activity [7] 100% | residual activity [8] 88% | residual activity [9] 100% | residual activity [10] 100% | residual activity [11] 100% | residual activity [12] 100% | residual activity [13] 100% | residual activity [14] 100% | residual activity [15] 91% | residual activity [16] 100% | residual activity [17] 100% | residual activity [18] 100% | residual activity [19] 100% | residual activity [20] 99% | residual activity [21] 100% | residual activity [22] 100% | residual activity [23] 100% | residual activity [24] 100% | residual activity [25] 100% | residual activity [26] 100% | residual activity [27] 100% | residual activity [28] 100% | residual activity [29] 100% | residual activity [30] 100% | residual activity [31] 100% | residual activity [32] 100% | residual activity [33] 94% | residual activity [34] 100% | residual activity [35] 100% | residual activity [36] 100% | residual activity [37] 100% | residual activity [38] 100% | residual activity [39] 100% | residual activity [40] 82% | residual activity [41] 100% | residual activity [42] 100% | residual activity [43] 100% | inhibition [44] 22.7% | inhibition [45] -6.63%

Source: ChEMBL document CHEMBL4507287, “Data for DCP probe MRL-650” (2021)
